Experiments:
human Factor XIa = human Factor XIa (Homo sapiens (Human), UniProt P03951); assay: Factor XIa Assay; type: biochemical; details: purified human Factor XIa 40 pM, Z-Gly-Pro-Arg-AFC 100 μM, pH 7.4; read-out: FXIa Ki
Method in brief: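 Purified human FXIa (40 pM final) hydrolysing fluorogenic Z-Gly-Pro-Arg-AFC (100 μM) in 50 mM HEPES pH 7.4, 150 mM NaCl, 5 mM CaCl2, 0.1% PEG 8000, at room temperature or 37° C. Initial velocities measured after enzyme–inhibitor equilibration; Ki from Vo/Vi versus [I], assuming competitive inhibition.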

Human plasma kallikrein = Human plasma kallikrein (Homo sapiens (Human), UniProt P03952); assay: Kallikrein Assay; type: biochemical; details: purified Human plasma kallikrein 0.5 nM, Acetyl-K-P-R-AFC, pH 7.4; Ki from IC50 by Cheng Prusoff
Protocol: The effectiveness of a compound of the present invention as an inhibitor of Kallikrein can be determined using a relevant purified serine protease, and an appropriate synthetic substrate. The rate of hydrolysis of the chromogenic or fluorogenic substrate by the relevant serine protease was measured both in the absence and presence of compounds of the present invention. Assays were conducted at room temperature or at 37° C. […] A decrease in the rate of fluorescence change in the presence of inhibitor is indicative of enzyme inhibition. Such methods are known to one skilled in the art. The results of this assay are expressed as the inhibitory constant, Ki.
Kallikrein determinations were made in 50 mM HEPES buffer at pH 7.4 containing 150 mM NaCl, 5 mM CaCl2, and 0.1% PEG 8000 (polyethylene glycol; Fisher Scientific). Determinations were made using purified Human plasma kallikrein at a final concentration of 0.5 nM (Enzyme Research Laboratories) and the synthetic substrate, Acetyl-K-P-R-AFC (Sigma #C6608) at a concentration of […].
Times required to achieve equilibration between enzyme and inhibitor were determined in control experiments. The reactions were performed under linear progress curve conditions and fluorescence increase measured at 405 Ex/510 Em nm. […] IC50 was determined by inflection point from a four parameter logistic curve fit. Ki was calculated using the Cheng Prusoff equation, Ki=IC50/(1+([S]/Km)).

Human plasma kallikrein, sequence (P03952 391-638): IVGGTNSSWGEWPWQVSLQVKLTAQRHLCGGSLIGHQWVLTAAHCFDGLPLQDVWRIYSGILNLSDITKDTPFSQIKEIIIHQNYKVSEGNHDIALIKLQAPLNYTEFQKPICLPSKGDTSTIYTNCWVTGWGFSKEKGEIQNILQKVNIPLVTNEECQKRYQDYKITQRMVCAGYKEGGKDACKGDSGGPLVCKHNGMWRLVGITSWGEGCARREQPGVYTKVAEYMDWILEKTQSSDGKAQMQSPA
Human plasma kallikrein, sequence (P03952 20-390 partner): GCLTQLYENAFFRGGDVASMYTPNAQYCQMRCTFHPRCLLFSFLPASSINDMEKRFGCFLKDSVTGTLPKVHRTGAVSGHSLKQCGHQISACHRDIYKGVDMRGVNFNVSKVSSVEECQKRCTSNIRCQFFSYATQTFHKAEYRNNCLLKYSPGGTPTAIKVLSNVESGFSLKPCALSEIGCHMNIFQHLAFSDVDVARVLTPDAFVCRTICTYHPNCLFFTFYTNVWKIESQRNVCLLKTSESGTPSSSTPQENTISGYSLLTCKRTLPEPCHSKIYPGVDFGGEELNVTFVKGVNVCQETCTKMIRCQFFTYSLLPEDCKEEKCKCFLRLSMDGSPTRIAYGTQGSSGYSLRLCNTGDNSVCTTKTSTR
human Factor XIa, sequence (P03951 388-625): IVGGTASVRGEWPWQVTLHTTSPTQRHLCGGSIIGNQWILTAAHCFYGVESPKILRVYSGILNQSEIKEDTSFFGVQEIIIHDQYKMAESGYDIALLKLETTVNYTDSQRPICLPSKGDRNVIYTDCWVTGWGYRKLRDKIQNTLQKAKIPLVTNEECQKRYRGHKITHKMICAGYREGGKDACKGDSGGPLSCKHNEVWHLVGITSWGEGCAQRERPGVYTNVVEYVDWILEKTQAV
human Factor XIa, sequence (P03951 19-387 partner): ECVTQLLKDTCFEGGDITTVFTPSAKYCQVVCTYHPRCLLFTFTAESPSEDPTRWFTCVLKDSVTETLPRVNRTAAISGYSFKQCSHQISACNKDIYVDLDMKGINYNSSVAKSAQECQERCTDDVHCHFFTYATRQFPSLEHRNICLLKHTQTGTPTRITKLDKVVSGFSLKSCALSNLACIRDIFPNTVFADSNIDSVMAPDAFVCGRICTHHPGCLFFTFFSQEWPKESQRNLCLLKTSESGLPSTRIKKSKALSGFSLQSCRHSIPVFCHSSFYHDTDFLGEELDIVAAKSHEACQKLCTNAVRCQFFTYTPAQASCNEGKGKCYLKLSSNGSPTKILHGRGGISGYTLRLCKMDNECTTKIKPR

| SMILES | Ki (human Factor XIa) [nM] | Ki (Human plasma kallikrein) [nM] |
| --- | --- | --- |
| COC(=O)Nc1ccc(C(=O)N[C@@H](CC2CC2(F)F)C(=O)N2CCC[C@@]3(C2)OC(=O)Nc2ccc(Cl)c(F)c23)cc1 (single isomer, unassigned) [Example 67A] | 11.6 | 2.9 |
| COC(=O)Nc1ccc(C(=O)N[C@@H](CC2CC2(F)F)C(=O)N2CCC[C@@]3(C2)OC(=O)Nc2ccc(Cl)c(F)c23)cc1 (single isomer, unassigned) [Example 67B] | 7.88 | 1.8 |
| COC(=O)Nc1ccc(C(=O)NC(C[C@@H]2CCCO2)C(=O)N2CCC[C@@]3(C2)OC(=O)Nc2ccc(Cl)c(F)c23)cc1 (single isomer, unassigned) [Example 116A] | 7.51 | 4.78 |
| COC(=O)Nc1ccc(C(=O)NC(C[C@H]2CCCO2)C(=O)N2CCC[C@@]3(C2)OC(=O)Nc2ccc(Cl)c(F)c23)cc1 (single isomer, unassigned) [Example 117A] | 18.7 | 10.6 |
| COC(=O)Nc1ccc(C(=O)N[C@@H](Cc2ccccc2)C(=O)N2CCC[C@@]3(C2)OC(=O)Nc2ccc(Cl)cc23)cc1 [Example 3b, methyl (4-(((S)-1-((R)-6-chloro-2-oxo-1,2-dihydrospiro[benzo[d][1,3]oxazine-4,3′-piperidin]-1′-yl)-1-oxo-3-phenylpropan-2-yl)carbamoyl)phenyl)carbamate] | 1.5 | 1.55 |
| COC(=O)Nc1ccc(C(=O)N[C@@H](Cc2ccccc2)C(=O)N2CC[C@@]3(C2)OC(=O)Nc2ccc(Cl)cc23)cc1 [Example 6, methyl (4-(((S)-1-((R)-6-chloro-2-oxo-1,2-dihydrospiro[benzo[d][1,3]oxazine-4,3′-pyrrolidin]-1′-yl)-1-oxo-3-phenylpropan-2-yl)carbamoyl)phenyl)carbamate] | 4.7 | 4.02 |
| COC(=O)Nc1ccc(C(=O)N[C@@H](Cc2ccccc2)C(=O)N2CC[C@@]3(C2)OC(=O)Nc2ccc(Cl)c(F)c23)cc1 [Example 7, methyl (4-(((S)-1-((R)-6-chloro-5-fluoro-2-oxo-1,2-dihydrospiro[benzo[d][1,3]oxazine-4,3′-pyrrolidin]-1′-yl)-1-oxo-3-phenylpropan-2-yl)carbamoyl)phenyl)carbamate] | 4.44 | 3.51 |
| COC(=O)Nc1ccc(C(=O)N[C@@H](Cc2ccccc2)C(=O)N2CCC[C@@]3(C2)OC(=O)Nc2ccc(F)cc23)cc1 [Example 8a, methyl (4-(((S)-1-((R)-6-fluoro-2-oxo-1,2-dihydrospiro[benzo[d][1,3]oxazine-4,3′-piperidin]-1′-yl)-1-oxo-3-phenylpropan-2-yl)carbamoyl)phenyl)carbamate] | 12.8 | 9.78 |
| COC(=O)Nc1ccc(C(=O)N[C@@H](Cc2ccccc2)C(=O)N2CCC[C@@]3(C2)OC(=O)Nc2ccc(OC)cc23)cc1 [Example 9, methyl (4-(((S)-1-((R)-6-methoxy-2-oxo-1,2-dihydrospiro[benzo[d][1,3]oxazine-4,3′-piperidin]-1′-yl)-1-oxo-3-phenylpropan-2-yl)carbamoyl)phenyl)carbamate] | 2 | 2.6 |
| COC(=O)Nc1ccc(C(=O)N[C@@H](Cc2ccccc2)C(=O)N2CCCC3(C2)OC(=O)Nc2ccc(Cl)c(F)c23)cc1 (stereo partly drawn) [Example 13, methyl (4-(((2S)-1-(6-chloro-5-fluoro-2-oxo-1,2-dihydrospiro[benzo[d][1,3]oxazine-4,3′-piperidin]-1′-yl)-1-oxo-3-phenylpropan-2-yl)carbamoyl)phenyl)carbamate] | 1.8 | 1.4 |
| COC(=O)Nc1ccc(C(=O)N[C@@H](Cc2ccccc2)C(=O)N2CC[C@@]3(C2)OC(=O)Nc2ccc(C)cc23)cc1 [Example 14b, methyl (4-(((S)-1-((R)-6-methyl-2-oxo-1,2-dihydrospiro[benzo[d][1,3]oxazine-4,3′-pyrrolidin]-1′-yl)-1-oxo-3-phenylpropan-2-yl)carbamoyl)phenyl)carbamate] | 9.5 | 47.8 |
| COC(=O)Nc1ccc(C(=O)N[C@@H](Cc2ccccc2)C(=O)N2CCC[C@@]3(C2)OC(=O)Nc2ccc(C)cc23)cc1 [Example 15, methyl (4-(((S)-1-((R)-6-methyl-2-oxo-1,2-dihydrospiro[benzo[d][1,3]oxazine-4,3′-piperidin]-1′-yl)-1-oxo-3-phenylpropan-2-yl)carbamoyl)phenyl)carbamate] | 5.5 | 2.8 |
| COC(=O)Nc1ccc(C(=O)N[C@@H](Cc2ccccc2)C(=O)N2CCC[C@@]3(C2)OC(=O)Nc2ccc(C)c(F)c23)cc1 [Example 16, methyl (4-(((S)-1-((R)-5-fluoro-6-methyl-2-oxo-1,2-dihydrospiro[benzo[d][1,3]oxazine-4,3′-piperidin]-1′-yl)-1-oxo-3-phenylpropan-2-yl)carbamoyl)phenyl)carbamate] | 3.85 | 1.36 |
| COC(=O)Nc1ccc(C(=O)N[C@@H](Cc2ccc(F)cc2)C(=O)N2CC[C@@]3(C2)OC(=O)Nc2ccc(Cl)cc23)cc1 [Example 22, methyl (4-(((S)-1-((R)-6-chloro-2-oxo-1,2-dihydrospiro[benzo[d][1,3]oxazine-4,3′-pyrrolidin]-1′-yl)-3-(4-fluorophenyl)-1-oxopropan-2-yl)carbamoyl)phenyl)carbamate] | 5.3 | 21.9 |
| COC(=O)Nc1ccc(C(=O)N[C@@H](CC2(OC)CC2)C(=O)N2CCC[C@@]3(C2)OC(=O)Nc2ccc(Cl)c(F)c23)cc1 [Example 115, methyl (4-(((S)-1-((R)-6-chloro-5-fluoro-2-oxo-1,2-dihydrospiro[benzo[d][1,3]oxazine-4,3′-piperidin]-1′-yl)-3-(1-methoxycyclopropyl)-1-oxopropan-2-yl)carbamoyl)phenyl)carbamate] | – | 0.6 |
| COC(=O)Nc1ccc(C(=O)N[C@@H](C[C@H](C)OC)C(=O)N2CCC[C@@]3(C2)OC(=O)Nc2ccc(Cl)c(F)c23)cc1 [Example 118A, methyl (4-(((2S,4S)-1-((R)-6-chloro-5-fluoro-2-oxo-1,2-dihydrospiro[benzo[d][1,3]oxazine-4,3′-piperidin]-1′-yl)-4-methoxy-1-oxopentan-2-yl)carbamoyl)phenyl)carbamate] | – | 1.79 |
| COC(=O)Nc1ccc(C(=O)N[C@@H](C[C@@H](C)OC)C(=O)N2CCC[C@@]3(C2)OC(=O)Nc2ccc(Cl)c(F)c23)cc1 [Example 118B, methyl (4-(((2S,4R)-1-((R)-6-chloro-5-fluoro-2-oxo-1,2-dihydrospiro[benzo[d][1,3]oxazine-4,3′-piperidin]-1′-yl)-4-methoxy-1-oxopentan-2-yl)carbamoyl)phenyl)carbamate] | – | 1.06 |
| O=C(Nc1ccc(C(=O)N[C@@H](Cc2cccc(F)c2)C(=O)N2CCC[C@@]3(C2)OC(=O)Nc2ccc(Cl)c(F)c23)cc1)OCCP(=O)(O)O [Example 271, (2-(((4-(((S)-1-((R)-6-chloro-5-fluoro-2-oxo-1,2-dihydrospiro[benzo[d][1,3]oxazine-4,3′-piperidin]-1′-yl)-3-(3-fluorophenyl)-1-oxopropan-2-yl)carbamoyl)phenyl)carbamoyl)oxy)ethyl)phosphonic acid] | – | 0.6 |
| O=C1Nc2ccc(Cl)cc2[C@@]2(CCN(C(=O)[C@H](Cc3ccccc3)Nc3ncc(C(=O)O)cc3F)C2)O1 [Example 294, 6-(((S)-1-((R)-6-chloro-2-oxo-1,2-dihydrospiro[benzo[d][1,3]oxazine-4,3′-pyrrolidin]-1′-yl)-1-oxo-3-phenylpropan-2-yl)amino)-5-fluoronicotinic acid] | 10000 | – |
| O=C1Nc2ccc(Cl)cc2[C@@]2(CCCN(C(=O)[C@H](Cc3ccccc3)Nc3ccc(-c4ccc(O)nc4)cn3)C2)O1 [Example 295, (R)-6-chloro-1′-((6′-hydroxy-[3,3′-bipyridin]-6-yl)-L-phenylalanyl)spiro[benzo[d][1,3]oxazine-4,3′-piperidin]-2(1H)-one] | 10000 | – |
| O=C1Nc2ccc(Cl)cc2[C@@]2(CCCN(C(=O)[C@H](Cc3ccccc3)Nc3ccc(-c4cc[nH]n4)cn3)C2)O1 [Example 296, (R)-1′-((5-(1H-pyrazol-3-yl)pyridin-2-yl)-L-phenylalanyl)-6-chlorospiro[benzo[d][1,3]oxazine-4,3′-piperidin]-2(1H)-one] | 10000 | – |
| O=C1Nc2ccc(Cl)cc2[C@@]2(CCCN(C(=O)[C@H](Cc3ccccc3)Nc3ccc(-c4cccc(C(=O)O)c4)cn3)C2)O1 [Example 297, 3-(6-(((S)-1-((R)-6-chloro-2-oxo-1,2-dihydrospiro[benzo[d][1,3]oxazine-4,3′-piperidin]-1′-yl)-1-oxo-3-phenylpropan-2-yl)amino)pyridin-3-yl)benzoic acid] | 10000 | – |

From US10093683B2, “Factor XIa inhibitors” (Merck Sharp & Dohme Corp., priority 2014, dated 2018)
